Laboratory results published in patent US10202330B2, “Lysine specific demethylase-1 inhibitors and their use” (ORYZON GENOMICS S.A., priority 2010, dated 2019).
Counter-ions that a name gives are not always drawn. Like-named read-outs stand apart in the source and are kept apart here.

Assays:
[1] = biological target: Human recombinant monoamine oxidase MAO-B (Homo sapiens (Human), UniProt P27338); experiment: Monoamine oxidase assay, kynuramine to 4-hydroxyquinoline fluorescence; format: biochemical; settings: Ki (IC50) at Vmax/2; two ranges listed = near the boundary
Excerpt: (§1) In order to monitor MAO enzymatic activities and/or their inhibition rate by inhibitor(s) of interest, a fluorescent-based (inhibitor)-screening assay was set up. 3-(2-Aminophenyl)-3-oxopropanamine (kynuramine dihydrobromide, Sigma Aldrich), a non fluorescent compound was chosen as a substrate. Kynuramine is a non-specific substrate for both MAOs activities. While undergoing oxidative deamination by MAO activities, kynuramine is converted into 4-hydroxyquinoline (4-HQ), a resulting fluorescent product.
(§2) The monoamine oxidase activity was estimated by measuring the conversion of kynuramine into 4-hydroxyquinoline. Assays were conducted in 96-well black plates with clear bottom (Corning) in a final volume of 100 μL. The assay buffer was 100 mM HEPES, pH 7.5. Each experiment was performed in triplicate within the same experiment.
(§3) The oxidative deamination of the substrate was stopped by adding 50 μL (v/v) of NaOH 2N. […] Arbitrary units were used to measure levels of fluorescence produced in the absence and/or in the presence of inhibitor.
(§4) The Ki (IC50) of each inhibitor was determined at Vmax/2.

[2] = biological target: Human recombinant monoamine oxidase MAO-A (Homo sapiens (Human), UniProt P21397); experiment: as above; format: biochemical; settings: Ki (IC50) at Vmax/2; two ranges listed = near the boundary
Excerpt: as §1, §2, §3, §4

[3] = biological target: Human recombinant LSD1 protein (Homo sapiens (Human), UniProt O60341); experiment: LSD1 inhibition, Amplex Red peroxide/peroxidase-coupled assay with di-methylated H3-K4 peptide; format: biochemical
Description: The demethylase activity was estimated, under aerobic conditions, by measuring the release of H2O2 produced during the catalytic process, using the Amplex® Red peroxide/peroxidase-coupled assay kit (Invitrogen).
Within the experiment, each concentration of inhibitor was tested in triplicate. […] The enzymatic reactions were set up in a 50 mM sodium phosphate, pH 7.4 buffer. At the end of the incubation, Amplex® Red reagent and horseradish peroxidase (HPR) solution were added to the reaction according to the recommendations provided by the supplier (Invitrogen), and left to incubate for 30 extra minutes at room temperature in the dark. A 1 μM H2O2 solution was used as a control of the kit efficiency. The conversion of the Amplex® Red reagent to resorufin due to the presence of H2O2 in the assay, was monitored by fluorescence (excitation at 540 nm, emission at 590 nm) using a microplate reader (Infinite 200, Tecan). Arbitrary units were used to measure level of H2O2 produced in the absence and/or in the presence of inhibitor.
The Ki (IC50) of each inhibitor was estimated at half of the maximum activity.

[4] = system: human colon cancer cell line HCT116; experiment: Cancer cell line study, alamarBlue viability assay; format: cell-based; settings: HCT-116, read-out: EC50 (dose required to inhibit cell growth by 50%), HCT116, 72 hours
Description: The HCT116 cell line was maintained in DMEM GlutaMAX (Invitrogen) supplemented with 10% fetal calf serum.
Cells were grown in a humidified incubator at 37° C. in 5% CO2.
Cells were plated in 96-well plates at a density of 6000 cells/well in 100 μl medium 24 h before addition of drugs. […] To do so, a drugs-dilution plate at twice the screening concentrations was prepared. 72 hours later, alamarBlue (Biosource, Invitrogen) viability assay was performed following manufacturer's protocol. In brief, alamarBlue diluted in media was added to cells to have a 5% solution. Cells were incubated at 37° C., 3 hours and at room temperature, 30 min. Cells with no drug and, cells with no drug and lysed with triton X-100 were used as controls. Fluorescence was monitored at 530 nm excitation and 590 nm emission wavelengths. Results were quantified using Infinite F200 Microplate Reader (Tecan Group, Ltd.).

[5] = Ki (IC50) at half of the maximum activity, two ranges listed = near the boundary, read-out: LSD1 (Ki)

Row | Ki [1] [nM] | Ki [2] [nM] | Ki [3, 5] [nM] | MAO-B (Ki) [1] | LSD1 (Ki) ([3]; Ki (IC50) at half of the maximum activity, two ranges listed = near the boundary) | SMILES | EC50 [4] [nM] | Ki [3] [nM]
1 | – | 1000 to 40000 | – | II, III | – | COc1ccc2c(c1)C(N[C@H]1CC1c1ccc(OCc3ccccc3)cc1)CC2.Cl (stereo in doubt) [Example 1, N-((trans)-2-(4-(benzyloxy)phenyl)cyclopropyl)-6-methoxy-2,3-dihydro-1H-inden-1-amine hydrochloride] | – | –
2 | 1000 to 40000 | 1000 to 40000 | – | – | II, III | COc1ccc2c(c1OC)CCC2N[C@H]1CC1c1ccc(OCc2ccccc2)cc1.Cl (stereo in doubt) [Example 3, N-((trans)-2-(4-(benzyloxy)phenyl)cyclopropyl)-4,5-dimethoxy-2,3-dihydro-1H-inden-1-amine hydrochloride] | ~37000 | –
3 | – | 1000 to 40000 | – | – | – | c1ccc(C2C[C@@H]2NC2CCc3ccccc32)cc1 (stereo in doubt) [Example 4, N-((trans)-2-phenylcyclopropyl)-2,3-dihydro-1H-inden-1-amine hydrochloride] | – | –
4 | – | 1000 to 40000 | – | – | – | COc1ccc2c(c1)C(N[C@H]1CC1c1ccccc1)CC2 (stereo in doubt) [Example 5, 6-methoxy-N-((trans)-2-phenylcyclopropyl)-2,3-dihydro-1H-inden-1-amine] | – | –
5 | 1000 to 40000 | 1000 to 40000 | 100 to 1000 | – | – | Clc1ccc2c(c1)C(N[C@H]1CC1c1ccccc1)CC2 (stereo in doubt) [Example 6, 6-chloro-N-((trans)-2-phenylcyclopropyl)-2,3-dihydro-1H-inden-1-amine hydrochloride] | – | –
6 | 1000 to 40000 | 1000 to 40000 | 100 to 1000 | – | – | COc1ccc2c(c1)C(N[C@H]1CC1c1ccccc1)CCC2 (stereo in doubt) [Example 8, 7-methoxy-N-((trans)-2-phenylcyclopropyl)-1,2,3,4-tetrahydronaphthalen-1-amine] | – | –
7 | – | 1000 to 40000 | – | – | – | COc1cccc(-c2ccc(C3C[C@@H]3NC3CCc4ccc(OC)cc43)cc2)c1 (stereo in doubt) [Example 11, 6-methoxy-N-((trans)-2-(3′-methoxybiphenyl-4-yl)cyclopropyl)-2,3-dihydro-1H-inden-1-amine hydrochloride] | – | –

Second part, the compound before the results:

Row | SMILES | Ki [1] [nM] | Ki [2] [nM] | Ki [3, 5] [nM] | MAO-B (Ki) [1] | LSD1 (Ki) ([3]; Ki (IC50) at half of the maximum activity, two ranges listed = near the boundary) | EC50 [4] [nM] | Ki [3] [nM]
8 | c1ccc([C@H]2C[C@@H]2NCCCC2CCCCC2)cc1 (relative stereo) [Example 13, (Trans)-N-(3-cyclohexylpropyl)-2-phenylcyclopropanamine hydrochloride] | 1000 to 40000 | 1000 to 40000 | 100 to 1000 | – | – | – | –
9 | c1ccc([C@H]2C[C@@H]2NCCC2CCCCCC2)cc1 (relative stereo) [Example 14, (Trans)-N-(2-cycloheptylethyl)-2-phenylcyclopropanamine hydrochloride] | 1000 to 40000 | 1000 to 40000 | 100 to 1000 | – | – | – | –
10 | Brc1cccc(COc2ccc([C@H]3C[C@@H]3NCCC3CCCCC3)cc2)c1 (relative stereo) [Example 15, (Trans)-2-(4-(3-bromobenzyloxyl)phenyl)-N-(2-cyclohexylethyl)cyclopropanamine hydrochloride] | 100 to 1000 | 1000 to 40000 | – | – | – | ~13300 | 100 to 1000
11 | COc1ccc2c(c1)C(N[C@@H]1C[C@H]1c1ccc(OCc3ccccc3)cc1)CCC2 (relative stereo) [Example 20, N-((trans)-2-(4-(benzyloxy)phenyl)cyclopropyl)-7-methoxy-1,2,3,4-tetrahydronaphthalen-1-amine] | 1000 to 40000 | 1000 to 40000 | 100 to 1000 | – | – | – | –
12 | COc1ccc2c(c1)C(N[C@H]1CC1c1ccc(OCc3cccc(Br)c3)cc1)CC2 (stereo in doubt) [Example 16, N-((trans)-2-(4-(3-bromobenzyloxyl)phenyl)cyclopropyl)-6-methoxy-2,3-dihydro-1H-inden-1-amine hydrochloride] | 1000 to 40000 | 1000 to 40000 | 100 to 1000 | – | – | – | –
